Assays:
[1] = some patients receiving vericiguat in clinical trials; cited from earlier work
[2] = tested on: participants with chronic heart failure with reduced ejection fraction; assay: Phase 2b open-label clinical study of tolerability and safety of a 5 mg initiation dose of vericiguat (NCT06195930)
Procedure: A Phase 2b open-label clinical study to evaluate the tolerability and safety of an initiation dose of 5 mg of Vericiguat in participants with chronic heart failure with reduced ejection fraction.
The patients had symptomatic chronic heart failure with reduced ejection fraction (HFrEF). […] Participants underwent a screening visit to assess eligibility. Eligible participants waited a mandatory 2 weeks before returning for Visit 1 in order to be clinically and hemodynamically stable. At Visit 1 (V1), participants received vericiguat with directions to take a 5 mg tablet once daily for 2 weeks. Participants returned for Visit 2 (V2) after 2 weeks of treatment. There were unplanned healthcare visits for heart failure between Visits 1 and 2 at the discretion of the investigator.
Primary objective was to evaluate the tolerability of 5 mg as a starting dose of vericiguat. Endpoint: Treatment tolerability, defined as the completion of the two-week 5 mg dose without discontinuation of study intervention and without moderate to severe symptomatic hypotension between Visit 1 (V1) and Visit 2 (V2) Secondary objective 1 was to describe safety events of initiation of 5 mg dose. Endpoints: Any adverse event reported between V1 and V2. Absence of adverse events related to study intervention between V1 and V2.
Secondary objective 2 was to further evaluate the tolerability of 5 mg as a starting dose of vericiguat. Endpoint: Continuous intake of study intervention between V1 and V2 or restart of study intervention after any temporary interruption.
Dose changes in GDMT medications (RAS blockade, Beta-blocker, MRA, or SGLT2i) or oral diuretics for 2 weeks were discouraged, except when mandated by known side-effects for individual drug classes (e.g., hyperkalemia for MRA or angioedema for ACE-inhibitors/ARNI). Use of short and long-acting nitrates was permitted.
On Days 1-14, 5.0 mg Verquvo® vericiguat was administered orally once daily. The endpoint was tolerability based on need for treatment interruption between Days 1 and Day 14.

[3] = 106 started treatment, 5 mg once daily for 2 weeks

COC(=O)Nc1c(N)nc(-c2nn(Cc3ccccc3F)c3ncc(F)cc23)nc1N [Vericiguat, methyl {4,6-diamino-2-[5-fluoro-1-(2-fluorobenzyl)-1H-pyrazolo[3,4-b]pyridin-3-yl]pyrimidin-5-yl}carbamate]
Effect on systolic blood pressure compared with placebo [1]: reduction of systolic blood pressure
Difference between participants with and without recent worsening heart failure events in meeting primary and secondary endpoints ([2]; 5 mg dose, 2 weeks): no major differences
Primary endpoint: participants who completed the 2-week treatment period without moderate to severe symptomatic hypotension and without temporary treatment interruptions exceeding 1 day ([2]; 5 mg dose, 2 weeks): 93.4%
Secondary endpoint 1: participants who completed the 2-week treatment period without reported intervention-related adverse events ([2]; 5 mg dose, 2 weeks): 90.6%
Secondary endpoint 2: participants who completed treatment with continuous intervention intake or restarted study intervention after a temporary interruption ([2]; 5 mg dose, 2 weeks): 96.2%
patients who continued through the 14-day titration without a medical need for interruption ([2]; 5.0 mg orally once daily, Days 1-14): at least 90%
TREATMENT phase: Completed [2, 3]: 102 (96.2%) Number of participants (%)
TREATMENT phase: Did not complete [2, 3]: 4 (3.8%) Number of participants (%)
Tolerability of initiating treatment at 5 mg (in words) ([2]; HFrEF population with and without recent worsening heart failure events, on current GDMT): well tolerated
discontinuations for AE ([2]; OVERALL N = 106, SAF, 5 mg once daily, two weeks): 4 discontinuations
Any AE ([2]; SAF N = 106, 5 mg): 14 (13.2%) Number (%) of participants
Any AE leading to discontinuation of intervention ([2]; SAF N = 106, 5 mg): 4 (3.8%) Number (%) of participants
Any AE leading to dose modification of study intervention (delays, interruptions and reductions) ([2]; SAF N = 106, 5 mg): 6 (5.7%) Number (%) of participants
Any AE of special interest ([2]; SAF N = 106, 5 mg): 6 (5.7%) Number (%) of participants
Any AE related to procedures required by the protocol ([2]; SAF N = 106, 5 mg): 0 Number (%) of participants
Any SAE ([2]; SAF N = 106, 5 mg): 1 (0.9%) Number (%) of participants
Any SAE leading to discontinuation of intervention ([2]; SAF N = 106, 5 mg): 0 Number (%) of participants
Any SAE related to procedures required by the protocol ([2]; SAF N = 106, 5 mg): 0 Number (%) of participants
Any intervention-related AE ([2]; SAF N = 106, 5 mg): 10 (9.4%) Number (%) of participants
Any intervention-related SAE ([2]; SAF N = 106, 5 mg): 0 Number (%) of participants
Life-threatening SAE ([2]; SAF N = 106, 5 mg): 0 Number (%) of participants
Maximum intensity for any AE: MILD ([2]; SAF N = 106, 5 mg): 9 (8.5%) Number (%) of participants
Maximum intensity for any AE: MODERATE ([2]; SAF N = 106, 5 mg): 4 (3.8%) Number (%) of participants
Maximum intensity for any AE: SEVERE ([2]; SAF N = 106, 5 mg): 1 (0.9%) Number (%) of participants
Maximum intensity for intervention-related AEs: MILD ([2]; SAF N = 106, 5 mg): 8 (7.5%) Number (%) of participants
Maximum intensity for intervention-related AEs: MODERATE ([2]; SAF N = 106, 5 mg): 2 (1.9%) Number (%) of participants
Participants with total duration of interruption/delay of 0 days ([2]; SAF N = 106, 5 mg): 102 (96.2%) n (%)
Participants with total duration of interruption/delay of 1 day ([2]; SAF N = 106, 5 mg): 1 (0.9%) n (%)
Participants with total duration of interruption/delay of 2 days ([2]; SAF N = 106, 5 mg): 3 (2.8%) n (%)
SAE requiring hospitalization ([2]; SAF N = 106, 5 mg): 1 (0.9%) Number (%) of participants
SAE resulting in substantial disruption of normal life functions ([2]; SAF N = 106, 5 mg): 0 Number (%) of participants
SAE with fatal outcome ([2]; SAF N = 106, 5 mg): 0 Number (%) of participants
SAE: Congenital anomaly or birth defect ([2]; SAF N = 106, 5 mg): 0 Number (%) of participants
SAE: Other ([2]; SAF N = 106, 5 mg): 0 Number (%) of participants
Total Duration of Interruption/Delay, Max ([2]; SAF N = 106, 5 mg): 2 days
Total Duration of Interruption/Delay, Mean (SD) ([2]; SAF N = 106, 5 mg): 0.1 (0.3) ^ days
Total Duration of Interruption/Delay, Median ([2]; SAF N = 106, 5 mg): 0.0 days
Total Duration of Interruption/Delay, Min ([2]; SAF N = 106, 5 mg): 0 days
TREATMENT phase: Did not complete, primary reason ADVERSE EVENT ([2]; percentage of the participants who did not complete): 4 (100.0%) Number of participants (%)
